Reference: patent US8278100B2, “Lasonolide compounds as reagents for inducing premature chromosome condensation and methods for treating disorders” (The United States of America, as Represented by the …, priority 2008, dated 2012)

Legend:
tumor cells = test: Premature chromosome condensation (PCC) induction, cells not specified; format: cell-based; settings: co-treatment with Lasonolide A
Procedure: (§1) Burkitt's Lymphoma CA46 cells (500,000) (FIG. 1B) or breast cancer MDA-MB-231 cells (500,000) (FIG. 1A) were treated by 100 nM Lasonolide A (stock solution 100 μM in DMSO) for 1 h. Lymphocytes were treated with 200 nM Lasonolide A for 1 h. Cells were harvested with centrifuging on 2,000 rpm for 5 min at 4° C. Pellets were washed once by PBS and re-suspended in 1 mL PBS. 200 μL cells mixture were added to the chamber for cytospining. Cells were cytospun on 800 rpm for 10 min; slides were fixed in fresh-made 4% paraformaldehyde fixation for 20 min at room temperature, then moved to 70% ethanol for 20 min. Slides were stained with Propidium Iodide (“PI”) (20 μg/mL) and RNase A (100 μg/mL) for 15 min. Slides were washed with PBS for three times and mounted with Vectashield anti-fade mounting media (Vector Laboratories, Inc., Burlingame, Calif.). Images were taken using a Nikon Eclipse TE-300 confocal microscope.

[1] = tested on: Burkitt's Lymphoma CA46 cells; test: PCC induction and PI staining; format: cell-based, human; settings: 1 μM OA, 1 h
Procedure: as §1

human lymphocytes = test: PCC induction and PI staining; format: cell-based; settings: 1 μM OA, without additional reagents

Structure (SMILES)	effect of the added inhibitor on PCC induction by Lasonolide A (tumor cells)	cells with premature chromosome condensation (PCC) [1] [%]	lymphocytes going to PCC (human lymphocytes) [%]
CN1CC[C@H](c2c(O)cc(O)c3c(=O)cc(-c4ccccc4Cl)oc23)[C@H](O)C1 [Flavorpiridol]	could not influence the PCC induction	–	–
C[C@@H](CN1CC(=O)NC(=O)C1)N1CC(=O)NC(=O)C1 [ICRF187]	changed the pattern of PCC	–	–
C=C1[C@@H](O)[C@@H]2O[C@]3(CC[C@H](/C=C/[C@@H](C)[C@@H]4CC(C)=C[C@@]5(O[C@H](C[C@@](C)(O)C(=O)O)CC[C@H]5O)O4)O3)CC[C@H]2O[C@@H]1[C@@H](O)C[C@H](C)[C@H]1O[C@@]2(CCCCO2)CC[C@H]1C [OA, Okadaic Acid, reference compound]	–	31	1.7
CC[C@H](CO)Nc1nc(NCc2ccccc2)c2ncn(C(C)C)c2n1 [Roscovitine]	could not influence the PCC induction	–	–
C[C@@]1(CO)[C@H](O)CC[C@@]2(C)[C@H]1CC[C@H]1C[C@@H]3C[C@@]12CC[C@]3(O)CO [aphidicolin]	had no effect on PCC induction	–	–
